Earlier results, collected in article PMC9301717 (ACS Omega, 2022).

Assays:
IDE [1] = test system: IDE
IDE [2] = test system: IDE; remark: listed apart in the source

effect on the enzyme's ability to degrade insulin (IDE [2]): has no effect
SMILES: Oc1ccc(/C=C/c2cc(O)cc(O)c2)cc1 [resveratrol]
effect on IDE's activity toward Aβ42 (IDE [1]): sustains
